What was measured:
[1] = tested on: bone (distal femur / proximal tibia) of ovariectomized rats; test: Bone studies in ovariectomized rats: bone density by pQCT; type: in vivo, rat; settings: for % of Action of E2 (bone density tibia) / Bone Density Tibia: Table 7, proximal tibia
[2] = tested on: trabecular bone (proximal tibia) of ovariectomized rats; test: Bone studies in ovariectomized rats: trabecular bone surface area (TB/TV), histological, proximal tibia; type: in vivo, rat; settings: 28 days
Method: 3-month-old female rats are ovariectomized and treated once daily with the test compound immediately after the operation for 28 days. The administration is done subcutaneously in castor oil/benzyl benzoate or arachis oil/ethanol. The animals are sacrificed on the day after the last administration, and femurs, tibiae and uteri are removed. The uteri are weighed, fixed and worked up for histological studies. The determination of the bone density is carried out ex vivo on prepared long bones with use of pQCT (Quantitative Computer Tomography). The measurements are performed at a distance of 5-7 mm from the ball of the joint on the distal femur or the proximal tibia.
As an alternative, the action on the bone is determined by measuring the trabecular bone surface area of the secondary spongiosa in histological preparations of the distal femur or the proximal tibia. The result is expressed as the proportion, in percent, of the trabecular bone surface area in the measured total bone surface area ([…]). The bone density that is measured with use of QCT and the trabecular bone surface area that is determined in the histological section correlate well to one another. A comparison of the two measurement variables is therefore permissible.
About 50% of the bone density of the animals is lost by the ovariectomy. […] In Table 4 and FIG. 2, the results of this test for doses of 0.1-100 μg/animal/day are presented. The bone density was measured on the distal femur; for comparison, the trabecular bone surface area in the proximal tibia was measured. The data that are contained in Table 4 mean specifically:
TB/TV trabecular bone surface area/total bone surface area; histologically determined
For compound B according to the invention, their bone-protecting action was also determined (Table 6). For this purpose, the parameter of TB/TV was determined, which, however, with respect to the informational value for the bone-protecting activity correlates well to the parameter of BMD-qCT that is determined for compounds A and V. This can be ascertained from Table 4; both parameters were determined for compound A.

uterus of infant rats [3] = test: Anti-uterus growth test in infant rats (antiestrogenic action); type: in vivo, rat; settings: with 0.3 μg/animal/day 17β-estradiol
Source text: (§1) The influence of the compounds according to the invention on the uterus was examined in the uterus growth test (estrogenic action) and in the anti-uterus growth test (antiestrogenic action), both performed on infant rats.
The uterus of infant estrogen-substituted rats can be used as a test model to detect a direct action of substances with antiestrogenic properties. The parameter of the estrogenic action is the uterus growth that is induced by estradiol in infant rats and that is inhibited by simultaneous administration of a substance with antiestrogenic action.
The test substances are treated s.c. on 3 successive days (d1-d3) in combination with a substitution dose of 0.3 μg/animal/day of 17β-estradiol. As a positive control, 17β-estradiol alone is used; the vehicle group is used as a negative control. On day 4 (d4), the animals are sacrificed, uteri and vaginae are prepared outside and weighed. The organ weights are converted into mg/100 g of body weight, and then the mean and the standard deviation for each dosage are calculated. The inhibition of the uterus or vaginal growth that is induced by 17β-estradiol is indicated in % as inhibition.

human estrogen receptor = target: T1, human estrogen receptor (Homo sapiens, UniProt P03372); test: Transactivation assay in HeLa cells (antiestrogenic action, vit-TK-CAT reporter); type: cell-based; settings: in the presence of 0.1 nM estradiol, read-out: Antagonism IC50, HELA
T1 construct: expressed in transfected cells; host or cells: HeLa cells
T1 sequence (P03372 1-595): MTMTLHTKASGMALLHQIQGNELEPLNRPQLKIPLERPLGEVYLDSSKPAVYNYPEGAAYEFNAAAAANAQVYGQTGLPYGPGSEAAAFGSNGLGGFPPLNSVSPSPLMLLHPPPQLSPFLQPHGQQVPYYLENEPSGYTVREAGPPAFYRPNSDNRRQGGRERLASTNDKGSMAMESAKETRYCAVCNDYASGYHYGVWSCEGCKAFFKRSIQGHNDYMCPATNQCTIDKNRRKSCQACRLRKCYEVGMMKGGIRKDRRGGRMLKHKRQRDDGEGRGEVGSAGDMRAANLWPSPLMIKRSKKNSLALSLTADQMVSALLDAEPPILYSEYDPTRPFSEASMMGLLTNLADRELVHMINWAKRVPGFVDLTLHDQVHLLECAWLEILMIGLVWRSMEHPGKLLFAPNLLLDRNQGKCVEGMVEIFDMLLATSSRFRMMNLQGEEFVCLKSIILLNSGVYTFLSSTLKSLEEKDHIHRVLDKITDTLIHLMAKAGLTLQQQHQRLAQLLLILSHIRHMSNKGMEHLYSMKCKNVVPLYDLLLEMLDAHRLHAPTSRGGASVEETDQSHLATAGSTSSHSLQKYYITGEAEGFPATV

bone / uterus of rats = test: Dissociation of bone action/uterus action (FIG. 7); type: in vivo, rat; settings: bone action vs uterus epithelial height, relative to 17β-estradiol
Source text: There, for compounds A, B and V, their bone-protecting actions are compared to the action of estrogen on the uterus (parameter: uterus epithelial height) as a function of dosage, in each case relative to the action of 17β-estradiol.

uterus of infant rats [4] = test: Uterus growth test on infant rats (estrogenic action); type: in vivo, rat; settings: for Epithelial Height % E2 / Uterus Weight % E2: 3 days, infant rats; for estrogenic action in the uterus (in words): uterus growth test
Source text: as §1
In infant animals, both uterus and vagina show one of the estrogenic activity-dependent weight increases in their treatment with an estrogenically active substance. In the uterus, under estrogenic action, moreover, it results in a proliferation and height increase of the luminal epithelium.
Immature, normal rats (body weight 40-50 g) receive the substance s.c. over 3 days (d1-d3). On day 4 (d4), the animals are sacrificed with CO2. The uteri are prepared outside and weighed. A piece of the uterus, preferably a uterine horn, is set in formaldehyde for the histological evaluation and embedded in paraffin. The stimulation of the organ weights (relative to mg/100 g of body weight) and the epithelial height are indicated in percentage stimulation in comparison to the reference compound 17β-estradiol. (Substitution dose E2 0.3 μg/animal).

estrogen receptors = target: T2, estrogen receptors (Homo sapiens, UniProt P03372); test: Transactivation assay in HeLa cells (partial estrogenic action, rPR-TK); type: cell-based; settings: rPR-TK reporter, read-out: Agonism HELA (rPR-TK)
T2 construct: expressed in transfected cells; host or cells: HeLa cells
Method: The partial estrogenic action was also determined by transactivation assays. HeLa cells were […] with estrogen receptors and a reporter gene, which consists of the estrogen-response element of the progesterone receptor and the CAT-gene. The test was performed as described: Savouret et al., EMBO J. 10, 1875-1883 (1991).

[5] = Table 4, distal femur, 0.3 μg/animal/day s.c., 28 days
[6] = Table 5, proximal tibia, 0.3 μg/animal/day s.c., 28 days
[7] = 0.3 μg/animal/day s.c., 28 days
[8] = Table 6, tibia, 0.3 μg/animal/day s.c.
[9] = Table 6, tibia, 1 μg/animal/day s.c.
[10] = Table 6, tibia, 10 μg/animal/day s.c.
[11] = Table 6, tibia, 100 μg/animal/day s.c.
[12] = 100 μg/animal/day s.c., 28 days
[13] = 250 μg/animal/day s.c., 28 days

Compound: C[C@]12CC[C@@H]3c4ccc(O)cc4CC[C@H]3[C@@H]1CC[C@@H]2O [17β-estradiol, reference compound]
- % of Action of E2 (bone density femur) [1, 5]: 100%
- Bone Density Femur [1, 5]: 361.7 mg Ca/ccm
- % of Action of E2 (bone density) [1, 6]: 100%
- Bone Density [1, 6]: 375.2 mg Ca/ccm
- % of Action of E2 (bone density tibia) [1, 7]: 100%
- Bone Density Tibia [1, 7]: 402.9 mg Ca/ccm
- TB/TV (Tibia) ([2]; Table 4, proximal tibia, 0.3 μg/animal/day s.c.): 34.0%
- % of Action of E2 (TB/TV) [2, 8]: 100%
- TB/TV (Tibia) [2, 8]: 26.0%

Compound: C[C@]12C[C@H](c3ccc(OCCCCC[S+]([O-])Cc4ccccn4)cc3)[C@@H]3c4ccc(O)cc4CC[C@H]3[C@]13CC[C@@]2(O)CC3 (stereo partly drawn) [Compound B, 14α,17α-ethano-11β-{4-[5-(2-pyridinomethylsulfinyl)pentyloxy]phenyl}-1,3,5(10)-estratriene-3,17β-diol]
- Uterus Weight % of Inhibition (uterus of infant rats [3]; 0.1 mg/kg s.c.): 32%
- Uterus Weight % of Inhibition (uterus of infant rats [3]; 1 mg/kg s.c.): 83%
- Uterus Weight % of Inhibition (uterus of infant rats [3]; 10 mg/kg s.c.): 100%
- IC50 (human estrogen receptor): 0.3 nM
- dissociation of bone-protecting action from estrogen action on the uterus (in words) (bone / uterus of rats): considerably dissociated
- Epithelial Height % E2 (uterus of infant rats [4]; 0.01 mg/kg s.c.): 4 % E2
- Uterus Weight % E2 (uterus of infant rats [4]; 0.01 mg/kg s.c.): 3 % E2
- Epithelial Height % E2 (uterus of infant rats [4]; 0.1 mg/kg s.c.): 19 % E2
- Uterus Weight % E2 (uterus of infant rats [4]; 0.1 mg/kg s.c.): 31 % E2
- Epithelial Height % E2 (uterus of infant rats [4]; 1 mg/kg s.c.): 18 % E2
- Uterus Weight % E2 (uterus of infant rats [4]; 1 mg/kg s.c.): 14 % E2
- Epithelial Height % E2 (uterus of infant rats [4]; 10 mg/kg s.c.): 13 % E2
- Uterus Weight % E2 (uterus of infant rats [4]; 10 mg/kg s.c.): 6 % E2
- estrogenic activity relative to compound V (in words) (uterus of infant rats [4]; s.c., in the considered dose range, vs compound V): approximately half as strongly estrogenically active
- estrogenic action in the uterus (in words) (uterus of infant rats [4]; s.c.): low estrogenic action
- % of Action of E2 (TB/TV) [2, 9]: 52%
- TB/TV (Tibia) [2, 9]: 19.6%
- % of Action of E2 (TB/TV) [2, 10]: 47%
- TB/TV (Tibia) [2, 10]: 18.9%
- % of Action of E2 (TB/TV) [2, 11]: 45%
- TB/TV (Tibia) [2, 11]: 18.6%
- Emax (estrogen receptors): 50%

Compound: C[C@]12C[C@H](c3ccc(OCCCCC[S+]([O-])Cc4ccccn4)cc3)[C@@H]3c4ccc(O)cc4CC[C@H]3[C@@H]1CC[C@@H]2O (stereo partly drawn) [Compound V, reference compound]
- Uterus Weight % of Inhibition (uterus of infant rats [3]; 0.3 mg/kg s.c.): 57%
- % of Action of E2 (bone density tibia) ([1]; 10 μg/animal/day s.c., 28 days): 40%
- Bone Density Tibia ([1]; 10 μg/animal/day s.c., 28 days): 337.3 mg Ca/ccm
- % of Action of E2 (bone density tibia) [1, 12]: 34.4%
- Bone Density Tibia [1, 12]: 331.2 mg Ca/ccm
- % of Action of E2 (bone density tibia) [1, 13]: 74%
- Bone Density Tibia [1, 13]: 374.3 mg Ca/ccm
- dose with which an action of about 80% of 17β-estradiol on trabecular bone is achieved ([1]; proximal tibia, s.c.): 250 μg/animal/day
- dissociation of bone-protecting action from estrogen action on the uterus (in words) (bone / uterus of rats): the two curves coincide
- Epithelial Height % E2 (uterus of infant rats [4]; 0.03 mg/kg s.c.): 18 % E2
- Uterus Weight % E2 (uterus of infant rats [4]; 0.03 mg/kg s.c.): 28 % E2
- Epithelial Height % E2 (uterus of infant rats [4]; 0.3 mg/kg s.c.): 33 % E2
- Uterus Weight % E2 (uterus of infant rats [4]; 0.3 mg/kg s.c.): 32 % E2
- Epithelial Height % E2 (uterus of infant rats [4]; 3 mg/kg s.c.): 27 % E2
- Uterus Weight % E2 (uterus of infant rats [4]; 3 mg/kg s.c.): 19 % E2
- estrogenic action in the uterus (in words) (uterus of infant rats [4]; s.c.): low estrogenic action
- Emax (estrogen receptors): 37%
